One assay has as its target T1, Akt2 (Homo sapiens, UniProt P31751).
T1 construct: unspecified tag, removed (detagged) (cleaved yes); purchased SignalChem and Proteros (Akt2); Merck Millipore (PDK1) 14-452 (PDK1); none given for Akt2
In words: Akt activation assay (PDK1-mediated activation, LANCE Ultra crosstide TR-FRET), Akt2. The note with it: read-out: Biological Assay 1 IC50 (nM) Akt2. Type of assay: biochemical. The gist of the method:
(§1)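 Compound + Akt preinc.; start w/ PDK1 5 nM, DOPS/DOPC 5.5 μM each, PIP3 0.55 μM, ATP 100 μM, Ulight-crosstide 100 nM; HEPES pH 7.5, 10 mM MgCl2, 2 mM DTT, 1% DMSO; 30 min; EDTA stop; Eu-Ab TR-FRET; 4-PL IC50.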
In general terms: Time-resolved FRET reads energy transfer from a long-lived donor to a nearby acceptor.

Another assay concerns the target T2, Akt3 (Homo sapiens, UniProt Q9Y243).
T2 construct: unspecified tag, removed (detagged) (cleaved yes); purchased SignalChem and Proteros (Akt3); Merck Millipore (PDK1) 14-452 (PDK1); none given for Akt3
In words: Akt activation assay (PDK1-mediated activation, LANCE Ultra crosstide TR-FRET), Akt3. The assay is classed as biochemical. The conditions noted are these: read-out: Biological Assay 1 IC50 (nM) Akt3. An outline of the steps:
as §1

For another assay, the target named is T3, p-Akt2 in WM115 cells (Homo sapiens, UniProt P31751).
T3 construct: SureFire assays to detect cellular p-Akt1, p-Akt2 and p-Akt3 levels in WM115 cells (Akt2/3) and LNCaP cells (Akt1); endogenous in cells; host or cells: WM115 (ECACC 91061232), insulin-stimulated
T3 sequence (P31751 whole entry): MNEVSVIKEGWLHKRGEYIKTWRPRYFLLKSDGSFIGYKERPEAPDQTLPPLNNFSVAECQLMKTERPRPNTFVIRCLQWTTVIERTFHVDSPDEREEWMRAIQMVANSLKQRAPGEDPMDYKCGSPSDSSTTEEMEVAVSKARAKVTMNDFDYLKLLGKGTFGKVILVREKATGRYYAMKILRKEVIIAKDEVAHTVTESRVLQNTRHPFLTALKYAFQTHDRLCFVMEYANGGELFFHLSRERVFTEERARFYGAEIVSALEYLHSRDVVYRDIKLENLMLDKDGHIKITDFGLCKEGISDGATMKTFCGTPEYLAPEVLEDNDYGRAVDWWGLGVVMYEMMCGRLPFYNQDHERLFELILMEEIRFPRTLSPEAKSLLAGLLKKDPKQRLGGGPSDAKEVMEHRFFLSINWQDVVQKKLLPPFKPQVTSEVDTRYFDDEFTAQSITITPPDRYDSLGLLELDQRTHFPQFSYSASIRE
Put plainly: Phospho-Akt cellular SureFire assay, p-Akt2 in WM115 cells. The assay is classed as cell-based. The note with it: insulin stimulated, read-out: Biological Assay 2 IC50 (nM) Akt2 WM115. An outline of the steps:
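WM115 cells in 0.1% FBS medium stimulated 10 min with 100 nM insulin, then exposed to compound for 15 min at 37° C (0.3% DMSO final). Lysates assayed by AlphaScreen with anti-(pThr308)Akt and isoform-specific total Akt2 antibodies; IC50 from 4-parameter fit.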

A further assay addresses T4, Akt1 (Homo sapiens, UniProt P31749).
T4 construct: unspecified tag, removed (detagged) (cleaved yes); purchased SignalChem and Proteros (Akt1); Merck Millipore (PDK1) 14-452 (PDK1); none given for Akt1
In words: Akt activation assay (PDK1-mediated activation, LANCE Ultra crosstide TR-FRET), Akt1. Type of assay: biochemical. The note with it: read-out: Biological Assay 1 IC50 (nM) Akt1. An outline of the steps: as §1

The target in another assay is T5, p-Akt3 in WM115 cells (Homo sapiens, UniProt Q9Y243).
T5 construct: SureFire assays to detect cellular p-Akt1, p-Akt2 and p-Akt3 levels in WM115 cells (Akt2/3) and LNCaP cells (Akt1); endogenous in cells; host or cells: WM115 (ECACC 91061232), insulin-stimulated
T5 sequence (Q9Y243 whole entry): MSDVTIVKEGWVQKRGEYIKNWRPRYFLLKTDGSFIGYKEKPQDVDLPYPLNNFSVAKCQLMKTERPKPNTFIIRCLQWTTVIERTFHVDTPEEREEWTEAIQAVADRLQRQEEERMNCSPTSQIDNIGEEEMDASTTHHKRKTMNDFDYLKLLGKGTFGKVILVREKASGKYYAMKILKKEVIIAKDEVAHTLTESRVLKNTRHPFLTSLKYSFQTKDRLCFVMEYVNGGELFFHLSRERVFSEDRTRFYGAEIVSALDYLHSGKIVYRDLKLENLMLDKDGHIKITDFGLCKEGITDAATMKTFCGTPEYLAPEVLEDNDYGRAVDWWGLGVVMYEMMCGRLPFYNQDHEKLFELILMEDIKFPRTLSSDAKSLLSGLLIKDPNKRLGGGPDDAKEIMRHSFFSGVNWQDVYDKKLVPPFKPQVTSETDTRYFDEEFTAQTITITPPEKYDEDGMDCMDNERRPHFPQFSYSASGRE
In words: Phospho-Akt cellular SureFire assay, p-Akt3 in WM115 cells. Type of assay: cell-based. The note with it: insulin stimulated, read-out: Biological Assay 2 IC50 (nM) Akt3 WM115. The gist of the method:
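WM115 cells were serum-reduced to 0.1% FBS, stimulated with 100 nM insulin for 10 min, then exposed to compound (0.3% DMSO) for 15 min at 37 °C. Lysates were assayed for Thr308-phosphorylated Akt3 by AlphaScreen SureFire using an isoform-specific total Akt3 capture antibody. IC50 was derived from a 4-parameter fit.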

The target in another assay is T6, p-Akt1 in LNCaP cells (Homo sapiens, UniProt P31749).
T6 construct: SureFire assays to detect cellular p-Akt1, p-Akt2 and p-Akt3 levels in WM115 cells (Akt2/3) and LNCaP cells (Akt1); endogenous in cells; host or cells: LNCaP (ECACC 89110211)
T6 sequence (P31749 whole entry): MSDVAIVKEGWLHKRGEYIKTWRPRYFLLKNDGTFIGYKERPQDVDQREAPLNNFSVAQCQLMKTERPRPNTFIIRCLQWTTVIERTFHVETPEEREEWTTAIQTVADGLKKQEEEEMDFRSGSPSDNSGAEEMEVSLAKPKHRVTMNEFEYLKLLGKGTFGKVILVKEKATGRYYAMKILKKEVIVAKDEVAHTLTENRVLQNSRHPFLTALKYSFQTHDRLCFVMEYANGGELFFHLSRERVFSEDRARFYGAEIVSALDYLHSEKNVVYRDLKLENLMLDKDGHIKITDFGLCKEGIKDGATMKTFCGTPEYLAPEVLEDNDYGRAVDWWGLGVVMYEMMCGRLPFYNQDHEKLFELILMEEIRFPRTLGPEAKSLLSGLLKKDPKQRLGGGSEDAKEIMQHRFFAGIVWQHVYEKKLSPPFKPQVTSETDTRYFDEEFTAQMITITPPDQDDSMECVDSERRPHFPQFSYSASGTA
In words: Phospho-Akt cellular SureFire assay, p-Akt1 in LNCaP cells. Type of assay: cell-based. The conditions noted are these: read-out: Biological Assay 2 IC50 (nM) Akt1 LNCaP. The gist of the method:
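LNCaP cells, 5×10^4/well, seeded overnight, switched to 0.1% FBS medium without insulin stimulation, then compound for 15 min at 37 °C (0.3% DMSO). Lysate p-Akt1 (pThr308) by AlphaScreen SureFire, two 2 h incubations at room temperature; IC50 by 4-parameter fit.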

Each structure is given as a SMILES string.

T2 sequence (Q9Y243 whole entry): as the sequence (Q9Y243 whole entry) above
T1 sequence (P31751 whole entry): as the sequence (P31751 whole entry) above
T4 sequence (P31749 whole entry): as the sequence (P31749 whole entry) above

As for `NC1(c2ccc(-c3nnc(NC(=O)C[C@H]4CC[C@H](N5CCOC5=O)CC4)cc3-c3ccccc3)cc2F)CC1` [Example A50, N-(6-(4-(1-aminocyclopropyl)-3-fluorophenyl)-5-phenylpyridazin-3-yl)-2-(trans-4-(2-oxooxazolidin-3-yl)cyclohexyl)acetamide], the half-inhibitory concentration (IC50) on Akt2 is 2200 nM; on Akt3 it was 140 nM; at p-Akt2 in WM115 cells, greater than 3790 nM; at Akt1 it was greater than 30000 nM; on p-Akt3 in WM115 cells it was 270 nM; at p-Akt1 in LNCaP cells it was greater than 30000 nM.
For the molecule `NC1(c2ccc(-c3cnc(NC(=O)C[C@H]4CC[C@H](N5CCOC5=O)CC4)cc3-c3ccccc3)cc2)CC1` [Example A51, N-(5-(4-(1-aminocyclopropyl)phenyl)-4-phenylpyridin-2-yl)-2-(trans-4-(2-oxooxazolidin-3-yl)cyclohexyl)acetamide], the concentration for half-maximal inhibition (IC50) on Akt2 is 340 nM; on Akt3 it was 42 nM; at p-Akt2 in WM115 cells it was 2000 nM; at Akt1, greater than 30000 nM; at p-Akt3 in WM115 cells, 150 nM; at p-Akt1 in LNCaP cells it was greater than 30000 nM.
As for `CC(C)(N)c1ccc(-c2cnc(NC(=O)C[C@H]3CC[C@H](N4CCOC4=O)CC3)cc2-c2ccsc2)cc1` [Example A52, N-(5-(4-(2-aminopropan-2-yl)phenyl)-4-(thiophen-3-yl)pyridin-2-yl)-2-(trans-4-(2-oxooxazolidin-3-yl)cyclohexyl)acetamide], the IC50 on Akt2 is 11000 nM; on Akt3, 640 nM; on p-Akt2 in WM115 cells it was 2600 nM; at Akt1 it was greater than 30000 nM; at p-Akt3 in WM115 cells, 240 nM; at p-Akt1 in LNCaP cells, greater than 30000 nM.
As for `N[C@]1(c2ccc(-c3cnc(NC(=O)C[C@H]4CC[C@H](N5CCOC5=O)CC4)cc3-c3ccccc3)cc2)C[C@@H](F)C1` [Example A53, N-(5-(4-(trans-1-amino-3-fluorocyclobutyl)phenyl)-4-phenylpyridin-2-yl)-2-(trans-4-(2-oxooxazolidin-3-yl)cyclohexyl)acetamide], the half-maximal inhibitory concentration (IC50) at Akt2 is 480 nM; at Akt3, 39 nM; at p-Akt2 in WM115 cells it was 5400 nM; at Akt1 it was greater than 30000 nM; at p-Akt3 in WM115 cells, 410 nM; at p-Akt1 in LNCaP cells it was greater than 30000 nM.
In the case of `CC(=O)N(C)[C@H]1CC[C@H](CC(=O)Nc2cc(-c3ccccc3)c(-c3ccc(C4(N)CC4)c(F)c3)nn2)CC1` [Example A54, N-(6-(4-(1-aminocyclopropyl)-3-fluorophenyl)-5-phenylpyridazin-3-yl)-2-(trans-4-(N-methylacetamido)cyclohexyl)acetamide], the IC50 at Akt2 is 6300 nM; on Akt3, 160 nM; at p-Akt2 in WM115 cells, greater than 13000 nM; on Akt1, greater than 30000 nM; at p-Akt3 in WM115 cells, 520 nM; at p-Akt1 in LNCaP cells it was greater than 30000 nM.
As to `COC(=O)N(C)[C@H]1CC[C@H](CC(=O)Nc2cc(-c3ccccc3)c(-c3ccc(C4(N)CCC4)cc3)nn2)CC1` [Example A55, Methyl (trans-4-(2-((6-(4-(1-aminocyclobutyl)phenyl)-5-phenylpyridazin-3-yl)amino)-2-oxoethyl)cyclohexyl)(methyl)carbamate], the concentration for half-maximal inhibition (IC50) at Akt2 was 380 nM; at Akt3 it was 16 nM; at p-Akt2 in WM115 cells, 5000 nM; on Akt1, greater than 16000 nM; at p-Akt3 in WM115 cells, 310 nM; on p-Akt1 in LNCaP cells it was greater than 30000 nM.
On to `CC(=O)N(C)[C@H]1CC[C@H](CC(=O)Nc2cc(-c3ccccc3)c(-c3ccc([C@]4(N)C[C@H](F)C4)cc3)cn2)CC1` [Example A59, N-(5-(4-((1r,3r)-1-amino-3-fluorocyclobutyl)phenyl)-4-phenylpyridin-2-yl)-2-(trans-4-(N-methylacetamido)cyclohexyl)acetamide], for which the IC50 is 740 nM at Akt2; 28 nM on Akt3; 8000 nM at p-Akt2 in WM115 cells; greater than 30000 nM at Akt1; 250 nM at p-Akt3 in WM115 cells; 9700 nM at p-Akt1 in LNCaP cells.
For `COC(=O)N(C)[C@H]1CC[C@H](CC(=O)Nc2cc(-c3ccccc3)c(-c3ccc(C4(N)CCC4)cc3)cn2)CC1` [Example A61, Methyl (trans-4-(2-((5-(4-(1-aminocyclobutyl)phenyl)-4-phenylpyridin-2-yl)amino)-2-oxoethyl)cyclohexyl)(methyl)carbamate], the IC50 was 1300 nM at Akt2; 77 nM at Akt3; greater than 27000 nM on p-Akt2 in WM115 cells; greater than 30000 nM at Akt1; 910 nM on p-Akt3 in WM115 cells; greater than 30000 nM on p-Akt1 in LNCaP cells.
For `CC(=O)N(C)[C@H]1CC[C@H](CC(=O)Nc2cc(-c3ccccc3F)c(-c3ccc(C4(N)CCC4)cc3)cn2)CC1` [Example A62, N-(5-(4-(1-aminocyclobutyl)phenyl)-4-(2-fluorophenyl)pyridin-2-yl)-2-(trans-4-(N-methylacetamido)cyclohexyl)acetamide], the IC50 on Akt2 was 1100 nM; at Akt3 it was 57 nM; on p-Akt2 in WM115 cells, 1200 nM; on Akt1, greater than 30000 nM; on p-Akt3 in WM115 cells, 81 nM; on p-Akt1 in LNCaP cells it was 7100 nM.
As for `COC(=O)N(C)[C@H]1CC[C@H](CC(=O)Nc2cc(-c3ccccc3F)c(-c3ccc(C4(N)CCC4)cc3)cn2)CC1` [Example A63, Methyl (trans-4-(2-((5-(4-(1-aminocyclobutyl)phenyl)-4-(2-fluorophenyl)pyridin-2-yl)amino)-2-oxoethyl)cyclohexyl)(methyl)carbamate], the half-maximal inhibitory concentration (IC50) on Akt2 was 5700 nM; on Akt3, 120 nM; at p-Akt2 in WM115 cells it was 6100 nM; on Akt1 it was greater than 30000 nM; at p-Akt3 in WM115 cells, 470 nM; on p-Akt1 in LNCaP cells, greater than 30000 nM.
Consider `CC(=O)N(C)[C@H]1CC[C@H](CC(=O)Nc2cc(-c3ccsc3)c(-c3ccc(C4(N)CCC4)cc3)cn2)CC1` [Example A64, N-(5-(4-(1-aminocyclobutyl)phenyl)-4-(thiophen-3-yl)pyridin-2-yl)-2-(trans-4-(N-methylacetamido)cyclohexyl)acetamide], for which the half-maximal inhibitory concentration (IC50) was 1400 nM on Akt2; 30 nM at Akt3; 1400 nM on p-Akt2 in WM115 cells; greater than 30000 nM at Akt1; 85 nM at p-Akt3 in WM115 cells; greater than 30000 nM at p-Akt1 in LNCaP cells.
Take `NC1(c2ccc(-c3cnc(NC(=O)C[C@H]4CC[C@H](N5CCOC5=O)CC4)cc3-c3ccccc3F)cc2)CCC1` [Example A65, N-(5-(4-(1-aminocyclobutyl)phenyl)-4-(2-fluorophenyl)pyridin-2-yl)-2-(trans-4-(2-oxooxazolidin-3-yl)cyclohexyl)acetamide]: the concentration for half-maximal inhibition (IC50) on Akt2 was 270 nM; at Akt3, 17 nM; on p-Akt2 in WM115 cells, 570 nM; at Akt1, greater than 30000 nM; on p-Akt3 in WM115 cells, 37 nM; on p-Akt1 in LNCaP cells, greater than 30000 nM.
As to `COC(=O)N(C)[C@H]1CC[C@H](CC(=O)Nc2cnc(-c3ccc(C(C)(C)N)cc3)c(-c3ccsc3)c2)CC1` [Example A67, Methyl (trans-4-(2-((6-(4-(2-aminopropan-2-yl)phenyl)-5-(thiophen-3-yl)pyridin-3-yl)amino)-2-oxoethyl)cyclohexyl)(methyl)carbamate], the IC50 at Akt2 is 8900 nM; at Akt3, 200 nM; at p-Akt2 in WM115 cells, greater than 30000 nM; at Akt1, greater than 30000 nM; at p-Akt3 in WM115 cells, 830 nM; on p-Akt1 in LNCaP cells, greater than 30000 nM.
`COC(=O)N(C)[C@H]1CC[C@H](CC(=O)Nc2cc(-c3ccsc3)c(-c3ccc(C(C)(C)N)cc3)nn2)CC1` [Example A69, Methyl (trans-4-(2-((6-(4-(2-aminopropan-2-yl)phenyl)-5-(thiophen-3-yl)pyridazin-3-yl)amino)-2-oxoethyl)cyclohexyl)(methyl)carbamate]: the concentration for half-maximal inhibition (IC50) is 12000 nM at Akt2; 220 nM on Akt3; greater than 30000 nM on p-Akt2 in WM115 cells; greater than 30000 nM on Akt1; 710 nM on p-Akt3 in WM115 cells; greater than 30000 nM on p-Akt1 in LNCaP cells.

As usually defined, the IC50 is the concentration needed to halve the response being measured.

These data come from patent US10336702B2, “Pharmaceutically active compounds” (BERGENBIO ASA, priority 2015, dated 2019).
